What was measured:
HePTP [1] = target: T1, HePTP (Homo sapiens, UniProt P35236); assay: HePTP HTS primary screen (colorimetric pNPP / Biomol Green); assay type: biochemical; details: 20 μM compound; read-out: % Inhib. at 20 μM
T1 sequence (P35236 1-360): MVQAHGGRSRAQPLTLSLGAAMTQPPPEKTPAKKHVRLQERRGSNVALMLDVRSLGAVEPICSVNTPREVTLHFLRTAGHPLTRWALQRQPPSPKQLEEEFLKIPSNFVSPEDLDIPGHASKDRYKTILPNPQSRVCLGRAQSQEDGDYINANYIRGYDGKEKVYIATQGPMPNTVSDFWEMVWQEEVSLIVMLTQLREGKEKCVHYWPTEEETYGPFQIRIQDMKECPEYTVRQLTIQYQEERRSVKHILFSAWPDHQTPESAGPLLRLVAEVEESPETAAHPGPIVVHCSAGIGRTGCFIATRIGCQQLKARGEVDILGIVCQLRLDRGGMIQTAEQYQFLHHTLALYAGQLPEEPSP
Description: (§1) The following assay can be conducted manually or can be carried out by a robotic station.
For this assay, HePTP catalyzes the following reaction:
wherein p-nitrophenyl phosphate serves as a substrate and is cleaved to form p-nitrophenol and phosphate. The liberated phosphate complexes with the Biomol Green™ reagent to provide a quantitative colorimetric value for the amount of substrate cleaved.
(§2) Compounds are then serially diluted in 100% DMSO, and then diluted with water to 10% final DMSO concentration.
(§3) The primary screening actives can then proceed to the dose-response confirmation stage.

HePTP [2] = target: T1, HePTP; assay: HePTP dose-response confirmation screening; assay type: biochemical; details: for IC50: 10 concentrations, 2-fold serial dilution, pNPP substrate; for n / nH (Hill coefficient): Hill coefficient of the dose-response curve
Description: as §1, §2, §3
* n represents the Hill coefficient. This coefficient is derived from the Hill equation which has the formula: […]
wherein θ is the fraction of ligand binding sites filled, L is the inhibitor concentration, Ka is the inhibitor concentration producing half occupation of the ligand binding sites, and n is the Hill coefficient.

SMILES	inhibition at 20 µM (HePTP [1]) [%]	IC50 (HePTP [2]) [nM]	n / nH (Hill coefficient) (HePTP [2])
O=C(O)CCC(=O)N1CCc2cc(S(=O)(=O)N3CCN(c4ccc(F)cc4)CC3)ccc21 [4-[5-[4-(4-Fluorophenyl)piperazin-1-yl]sulfonyl-2,3-dihydroindol-1-yl]-4-oxo-butanoic acid]	58.8	3770	7.72
Cc1ccc(-c2nn3c(C)nnc3s2)cc1NC(=O)c1ccc(-c2ccc(Cl)cc2Cl)o1 [5-(2,4-Dichlorophenyl)-N-[2-methyl-5-(2-methyl-6-thia-1,3,4,8-tetrazabicyclo[3.3.0]octa-2,4,7-trien-7-yl)phenyl]furan-2-carboxamide]	92.4	2120	1.3
COc1ccc(Br)cc1C(=O)Nc1cccc(-c2nnc(-c3ccco3)o2)c1 [5-Bromo-N-[3-[5-(2-furyl)-1,3,4-oxadiazol-2-yl]phenyl]-2-methoxy-benzamide]	102	4900	1.47
Cc1ccc2c(c1C)NC(C(=O)O)C1CC=CC21 (stereo not drawn) [6,7-dimethyl-3a,4,5,9b-tetrahydro-3H-cyclopenta[c]quinoline-4-carboxylic acid]	102	2120	2.01
O=C(O)c1c[nH]c2ccc(S(=O)(=O)N3CCN(c4ccc(F)cc4)CC3)cc2c1=O [6-[4-(4-Fluorophenyl)piperazin-1-yl]sulfonyl-4-oxo-1H-quinoline-3-carboxylic acid]	103	4660	2.66
O=C(O)C1Nc2c(O)cccc2C2C=CCC12 (stereo not drawn) [6-hydroxy-3a,4,5,9b-tetrahydro-3H-cyclopenta[c]quinoline-4-carboxylic acid]	103	200	2.11
COc1cccc2c1NC(C(=O)O)C1CC=CC21 (stereo not drawn) [6-methoxy-3a,4,5,9b-tetrahydro-3H-cyclopenta[c]quinoline-4-carboxylic acid]	103	1280	1.54
CCOC(=O)c1ccc2c(c1)C1C=CCC1C(C(=O)O)N2 (stereo not drawn) [8-(ethoxycarbonyl)-3a,4,5,9b-tetrahydro-3H-cyclopenta[c]quinoline-4-carboxylic acid]	103	280	2.97
O=C(Oc1ccccc1)c1ccc2c(c1)C1C=CCC1C(C(=O)O)N2 (stereo not drawn) [8-(phenoxycarbonyl)-3a,4,5,9b-tetrahydro-3H-cyclopenta[c]quinoline-4-carboxylic acid]	96.4	840	3.34
COc1ccc(OC)c(N2C(=O)[C@H]3C(c4ccccc4Cl)=NO[C@@H]3C2=O)c1 [(1S,5S)-2-(2-chlorophenyl)-7-(2,5-dimethoxyphenyl)-4-oxa-3,7-diazabicyclo[3.3.0]oct-2-ene-6,8-dione]	85.1	8250	2.27
CCCCC[C@H](O)/C=C/[C@H]1C=CC(=O)[C@@H]1C/C=C\CCCC(=O)O [(Z)-7-[(1R,2S)-2-[(E,3S)-3-Hydroxyoct-1-enyl]-5-oxo-1-cyclopent-3-enyl]hept-5-enoic acid]	57.3	13700	2.49
COC(=O)c1ccccc1NC(=O)c1noc2ccccc12 [Methyl 2-(4-oxa-3-azabicyclo[3.3.0]octa-2,9-diene-2-carbonylamino)benzoate]	81.2	2330	1.45
Cc1cc(NC(=O)Cc2cccs2)no1 [N-(5-methyl-1,2-oxazol-3-yl)-2-thiophen-2-ylacetamide]	99.7	700	2.49
O=C(NCc1ccco1)c1c2c(nc3ccccc13)CCC2 [N-(Furan-2-ylmethyl)-2,3-dihydro-1h-cyclopenta[b]quinoline-9-carboxamide;]	62	4630	1.52
CCc1ccc(OCC(=O)NC2=CC(=O)/C(=C3/Nc4ccccc4O3)C=C2)cc1 [N-[(4Z)-4-(3H-Benzooxazol-2-ylidene)-3-oxo-1-cyclohexa-1,5-dienyl]-2-(4-ethylphenoxy)acetamide]	59	5280	0.29
COc1ccc(Cc2nnc(NC(=O)Cc3cccs3)s2)cc1 [N-{5-[(4-methoxyphenyl)methyl]-1,3,4-thiadiazol-2-yl}-2-thiophen-2-ylacetamide]	103	4020	2.33
CC(=O)OCC1=C(C(=O)[O-])N2C(=O)[C@H](NC(=O)Cc3cccs3)[C@H]2SC1.[Na+] [Sodium (6R,7S)-3-(acetyloxymethyl)-8-oxo-7-[(2-thiophen-2-ylacetyl)amino]-5-thia-1-azabicyclo[4.2.0]oct-2-ene-2-carboxylate]	96.2	920	1.12
CC(C)Cn1c(N)c(C(=O)COC(=O)c2cc(-c3ccco3)nc3ccccc23)c(=O)n(C)c1=O [[2-[4-Amino-1-methyl-3-(2-methylpropyl)-2,6-dioxo-pyrimidin-5-yl]-2-oxo-ethyl] 2-(2-furyl)quinoline-4-carboxylate]	89.7	5270	2.48
CC(C)CN(C(=O)COC(=O)c1cc2c(s1)CCC2)C1CCS(=O)(=O)C1 (stereo not drawn) [[(1,1-Dioxothiolan-3-yl)-(2-methylpropyl)carbamoyl]methyl 4-thiabicyclo[3.3.0]octa-2,9-diene-3-carboxylate]	58.7	1210	1.52

Further molecules by falling IC50 (HePTP [2]), results first:

inhibition at 20 µM (HePTP [1]) [%]	IC50 (HePTP [2]) [nM]	n / nH (Hill coefficient) (HePTP [2])	SMILES
77.9	30200	2.66	C/C(N)=C(\C#N)C(=O)CSc1nnc(Nc2c(C)cccc2C)s1 [(Z)-3-Amino-2-[2-[[5-[(2,6-dimethylphenyl)amino]-1,3,4-thiadiazol-2-yl]sulfanyl]acetyl]but-2-enenitrile]
86.3	11300	0.45	COc1ccc(C(=O)c2no[n+]([O-])c2C(=O)c2ccc(OC)cc2)cc1 [[4-(4-Methoxybenzoyl)-2-oxido-1-oxa-5-aza-2-azoniacyclopenta-2,4-dien-3-yl]-(4-methoxyphenyl)methanone]
55.4	8330	1.44	CCOC(=O)C(C)Sc1nc2c(c(=O)[nH]c(=O)n2C)n1C/C=C(/C)Cl (stereo not drawn) [Ethyl 2-[7-[(Z)-3-Chlorobut-2-enyl]-3-methyl-2,6-dioxo-purin-8-yl]sulfanylpropanoate]
59.4	5950	2.08	O=C1CCCC2=C1C(c1ccco1)Nc1ccc3ccccc3c12 (stereo not drawn) [5-(Furan-2-yl)-2,3,5,6-tetrahydrobenzo[a]phenantridin-4(1H)-one]
90.2	2430	2.33	Cn1cnnc1SCC(=O)Nc1sc2c(c1C(=O)ON)CCC2 [N-[3-(aminooxycarbonyl)-5,6-dihydro-4H-cyclopenta[b]thiophen-2-yl]-2-(4-methyl-4H-1,2,4-triazol-3-ylthio)acetamide]
102	1500	1.94	Cc1nnc2sc(-c3ccc(NC(=O)c4ccc(-c5ccc(Cl)cc5Cl)o4)cc3)nn12 [5-(2,4-Dichlorophenyl)-N-[4-(2-methyl-6-thia-1,3,4,8-tetrazabicyclo[3.3.0]octa-2,4,7-trien-7-yl)phenyl]furan-2-carboxamide]
103	1120	1.95	CCOC(=O)C1CCN(C(=O)Nc2ccc3nc(-c4ccco4)c(-c4ccco4)nc3c2)CC1 [Ethyl 1-[[2,3-bis(2-furyl)quinoxalin-6-yl]carbamoyl]piperidine-4-carboxylate]
102	410	2.41	Cc1ccc2c(c1)C1C=CCC1C(C(=O)O)N2 (stereo not drawn) [8-methyl-3a,4,5,9b-tetrahydro-3H-cyclopenta[c]quinoline-4-carboxylic acid]
98	100	0.6	Cn1nnnc1SCC1=C(C(=O)[O-])N2C(=O)[C@H](NC(=O)[C@H](O)c3ccccc3)[C@H]2SC1.[Na+] [Sodium (6R,7S)-7-[[(2R)-2-hydroxy-2-phenyl-acetyl]amino]-3-[(1-methyltetrazol-5-yl)sulfanylmethyl]-8-oxo-5-thia-1-azabicyclo[4.2.0]oct-2-ene-2-carboxylate]

— patent publication US20120095032A1, “METHODS FOR TREATING LEUKEMIA AND MYELODYSPLASTIC SYNDROME, AND METHODS FOR IDENTIFYING AGENTS FOR TREATING SAME” (Sanford-Burnham Medical Research Institute, priority 2007, published 2012)
